The values below are quoted from earlier work in US20120201886A1, “Coated Extended Release Pharmaceutical Compositions Containing Paliperidone” (MICRO LABS LIMITED, priority 2010, published 2012).

For the compound `Cc1nc2n(c(=O)c1CCN1CCC(c3noc4cc(F)ccc34)CC1)CCCC2O` (racemic) [Paliperidone, (RS)-3-[2-[4-(6-fluorobenzo[d]isoxazol-3-yl)-1-piperidyl]ethyl]-7-hydroxy-4-methyl-1,5-diazabicyclo[4.4.0]deca-3,5-dien-2-one], the “solubility in 0.1 N hydrochloric acid” value (0.1 N hydrochloric acid) was “soluble”. Besides, the solubility in methanol entry (methanol) was “soluble”. For the same compound, the “solubility in methylene chloride” value (methylene chloride) is listed as “freely soluble”. The solubility in water result (water) was “practically insoluble”.
